The record followed here is ChEMBL document CHEMBL5244250, “Natural sesquiterpenoid oligomers: A chemical perspective” (Eur J Med Chem, 2020).

In general, pIC50 refers to the IC50 on a negative log10 scale, so that one unit is a factor of ten. What is called IC50 is the concentration that gives 50% inhibition.

Molecules are shown by their SMILES. pEC50, pIC50: −log10 of the molar value. In brackets after ≈: the same amount, converted by molar mass.

Experiment [1] concerns HeLa. Nature of the experiment: Cytotoxicity against human HeLa cells incubated for 48 hrs by WST-8 assay. It counts as functional, cell-based. On the technique in general: Tetrazolium assays rely on reduction of a dye to a coloured formazan, in cell work by metabolically active cells.
For experiment [2], the system named is HL-60. Nature of the experiment: Cytotoxicity against human HL-60 cells incubated for 48 hrs by WST-8 assay. It counts as functional, cell-based. The settings on record: HL-60, 48 h.
The subject of experiment [3] is B16-F10. Nature of the experiment: Cytotoxicity against mouse B16-F10 cells incubated for 48 hrs by WST-8 assay. Particulars: B16-F10, 48 h. The class given is functional, cell-based.
In experiment [4] the test system is CCRF-CEM. Nature of the experiment: Cytotoxicity against human CCRF-CEM cells. The class given is functional, cell-based.
The subject of experiment [5] is RAW264.7. In words: Anti-inflammatory activity in LPS induced mouse RAW264.7 cells assessed as inhibition of NO production by MTT method. It counts as functional, cell-based.
Experiment [6] has as its system HepG2. In words: Cytotoxicity against human HepG2 cells incubated for 48 hrs by MTT based colorimetry assay. The settings on record: HepG2, 48 h. It counts as functional, cell-based.
For experiment [7], the system named is MGC-803. Nature of the experiment: Cytotoxicity against human MGC-803 cells incubated for 48 hrs by MTT based colorimetry assay. It counts as functional, cell-based. Particulars: MGC-803, 48 h.
The subject of experiment [8] is CCRF S-180. Nature of the experiment: Cytotoxicity against mouse CCRF S-180 cells incubated for 48 hrs by MTT based colorimetry assay. It counts as functional, cell-based. The settings on record: CCRF S-180, 48 h.
For experiment [9], the system named is KB. In words: Cytotoxicity against human KB cells assessed as reduction in cell viability. It counts as functional, cell-based.
Experiment [10] concerns L1210. In words: Cytotoxicity against mouse L1210 cells assessed as reduction in cell viability. The class given is functional, cell-based.
Experiment [11] relates to Bel-7402. Nature of the experiment: Cytotoxicity against human Bel-7402 cells incubated for 72 hrs by CCK8 assay. The class given is functional, cell-based. The settings on record: Bel-7402, 72 h.
Experiment [12] concerns A549. In words: Cytotoxicity against human A549 cells incubated for 72 hrs by CCK8 assay. The class given is functional, cell-based. Particulars: A549, 72 h.
The test system of experiment [13] is HT-29. In words: Cytotoxicity against human HT-29 cells incubated for 72 hrs by CCK8 assay. The class given is functional, cell-based. Particulars: HT-29, 72 h.
In experiment [14] the test system is HL-60. Nature of the experiment: Cytotoxicity against human HL-60 cells incubated for 72 hrs by CCK8 assay. It counts as functional, cell-based. Particulars: HL-60, 72 h.
Experiment [15] relates to HL-60. Nature of the experiment: Cytotoxicity against human HL-60 cells. The class given is functional, cell-based.
For experiment [16], the system named is RAW264.7. Nature of the experiment: Anti-inflammatory activity in LPS induced mouse RAW264.7 cells assessed as inhibition of NO production pretreated for 1 hr followed by LPS stimulation and measured after 18 hrs by MTT assay. The class given is functional. The settings on record: time 19 hrs, read-out: ED50 (the source's name).

As to `C=C1C(=O)O[C@H]2[C@H]1[C@H](OC(=O)[C@](C)(O)[C@H](C)OC(=O)/C1=C/CC/C(C)=C/[C@H]3OC(=O)C(=C)[C@@H]3[C@H](OC(=O)/C(C)=C\C)C1)[C@@H](OCC)/C(C(=O)OC)=C\CC[C@]1(C)O[C@@H]21`, the pIC50 in experiment [1], in experiment [2] and in experiment [3] was 6.70 each time.

In experiment [4], `C=C1C(=O)O[C@H]2C[C@H](C)[C@@]34C[C@@H](C[C@@]35C(=O)O[C@H]3CC(=C)[C@H]6CC[C@@](C)(O)[C@@H]6C[C@@H]35)C(C)=C4C[C@H]12` showed a pIC50 of 5.69.

On to `C=C1CC[C@H]2C(=C)CC[C@@H]3[C@H](OC(=O)[C@]3(CC(C)O)C[C@@H]3C(=O)O[C@H]4[C@H]3CCC(=C)[C@@H]3CCC(=C)[C@@]34C)[C@@H]12` (some centres not stated), for which, in experiment [5], the negative-log IC50 (pIC50) was 5.61.

In the case of `C=C1C(=O)O[C@H]2C[C@H](C)C3=C(C[C@H]12)[C@@]1(C)C[C@@H]3C[C@@]12C(=O)O[C@H]1C=C(C)[C@H]3CC[C@@](C)(O)[C@@H]3C[C@@H]12`, the pIC50 in [4] was 5.69.

Take `CC(=O)C1=C(Oc2oc3c(c2C)C[C@@]2(C)[C@H](CCC[C@@H]2C)[C@@H]3O)C[C@H]2CCC[C@H](C)[C@@]2(C)C1`: the pIC50 in experiment [6], in experiment [7] and in experiment [8] was 4.92 each time.

For `C=C1CCC[C@]2(C)CC[C@@H](C(C)C)[C@H](NC(=O)NC(C)(C)[C@@H]3C=C4[C@@H](C)CCC[C@]4(C)CC3)[C@@H]12`, the IC50 in experiment [9] and in experiment [10] was 2.6 µg/mL (≈ 5.55 µM) each time.

Take `C=C1C(=O)O[C@H]2C[C@H](C)C3=C(C[C@H]12)[C@]1(C)C[C@@H]3C[C@@]12C(=O)O[C@@H]1C[C@@]3(C)[C@@H](O)C[C@@H](O)C(=C)[C@@H]3C[C@@H]12`: the negative logarithm of the IC50 (pIC50) in [4] was 6.85.

`C=C1CC[C@H]2C(=C)C(=O)O[C@@H]2[C@@H]2[C@H]1[C@@H](C[C@@H]1C(=O)C3C4[C@H]1[C@H]1OC(=O)C(=C)[C@@H]1CC[C@]4(O)CC[C@]31C(=O)C[C@H]3C(=C)CC[C@H]4C(=C)C(=O)O[C@@H]4[C@H]31)C(=O)[C@@]2(O)CC[C@@H]1C(=O)C[C@H]2C(=C)CC[C@H]3C(=C)C(=O)O[C@@H]3[C@@H]12` (some centres not stated): the pIC50 in experiment [11], in experiment [12], in experiment [13] and in [14] was 5.70 throughout.

As for `COC(=O)/C(C)=C1\C(=O)[C@H](O)[C@@]2(C)[C@@H]3C[C@@H]3C3=C[C@@]4(C)[C@@]5(C)[C@@H]6C[C@@H]6[C@@]6(O)COC(=O)/C(C)=C/COC(=O)C(O)CC(=O)OCC7=C(C[C@@H]65)[C@@]4(OC7=O)[C@@H]1[C@]32OO` (some centres not stated), the pIC50 in experiment [15] was 7.52.

`C=C1C(=O)O[C@@H]2/C=C(\C)CC/C=C(/C(=O)OC)[C@H](OCC)[C@@H](OC(=O)[C@](C)(O)[C@H](C)OC(=O)/C3=C/CC/C(C)=C/[C@H]4OC(=O)C(=C)[C@@H]4[C@H](OC(=O)/C(C)=C\C)C3)[C@@H]12`: the pIC50 in experiment [1], in [2] and in [3] was 6.70 in each case.

The compound `C=C1C(=O)O[C@H]2C[C@H](C)C3=C(C[C@H]12)[C@@]1(C)C[C@H]3C[C@@]12C(=O)O[C@@H]1C[C@@]3(C)[C@@H](O)C[C@@H](O)C(=C)[C@@H]3C[C@@H]12` gave a pIC50 in experiment [4] of 6.85.

Take `C=C1CC[C@H]2C(=C)CC[C@@H]3[C@H](OC(=O)[C@]3(CC(C)=O)C[C@@H]3C(=O)O[C@@H]4/C=C(/C)CC/C=C(/C)CC[C@@H]34)[C@@H]12`: in experiment [5], the pIC50 was 5.73.

`C=C(C)[C@@H]1c2oc3c(c2C(=O)C2=CCC[C@@H](C)[C@@]21C)C(=O)C[C@]1(C)C3=CCC[C@H]1C`: in experiment [16], the pEC50 was 4.63.

For the compound `C=C1CCC[C@]2(C)CC[C@@H](C(C)C)[C@H](NC(=O)N(CC(=O)O)[C@@H]3[C@H]4C(=C)CCC[C@]4(C)CC[C@H]3C(C)C)[C@@H]12`, the IC50 in [9] and in experiment [10] was 2.6 µg/mL (≈ 4.94 µM) in each case.

On to `C=C1CC[C@H]2C(=C)C(=O)O[C@@H]2[C@@H]2[C@H]1[C@@H](C[C@@H]1C(=O)C3C4[C@H]1[C@H]1OC(=O)C(=C)[C@@H]1CC[C@@]4(O)CC[C@]31C(=O)C[C@H]3C(=C)CC[C@H]4C(=C)C(=O)O[C@@H]4[C@H]31)C(=O)[C@@]2(O)CC[C@@H]1C(=O)C[C@H]2C(=C)CC[C@H]3C(=C)C(=O)O[C@@H]3[C@@H]12` (some centres not stated), for which the pIC50 in experiment [11], in experiment [12], in experiment [13] and in experiment [14] was 5.70 each time.

With `CC(=O)C1=C(Oc2oc3cc4c(c(C)c3c2C)[C@@H](C)CCC4)C[C@H]2CCC[C@H](C)[C@@]2(C)C1`, the pIC50 in experiment [6], in experiment [7] and in [8] was 4.92 throughout.

With `C=C1CC[C@H]2C(=C)CC[C@@H]3[C@H](OC(=O)[C@H]3C[C@@]3(CC(C)=O)C(=O)O[C@@H]4[C@H]5C(C)=CCCC5(C)CC[C@H]43)[C@@H]12` (some centres not stated), the pIC50 in experiment [5] was 5.14.

In experiment [15], `C=C1C(=O)O[C@H]2C[C@H](C)C3=C(C[C@H]12)[C@]1(C)C[C@H]3C[C@@]12C(=O)O[C@@H]1C[C@H](C)C(CC[C@H](C)O)=CC[C@@H]12` gave a pIC50 of 5.31.

Regarding `C[C@@H]1CC(=O)c2c3c(nc4c2[C@@]1(C)[C@H]1[C@@H](C4=O)C1(C)C)C[C@]1(C)C(=CCC[C@H]1C)C3=O`, the pEC50 in experiment [16] is 5.24.

Turning to `C=C1CCC[C@]2(C)CC[C@@H](C(C)C)[C@H](NC(=O)[C@H]3C[C@H](O)C[C@@H](C(=O)N[C@H]4[C@H](C(C)C)CC[C@@]5(C)CCCC(=C)[C@]45C)N3CCC(=O)OC)[C@@H]12`, the IC50 in experiment [9] was determined as 10.6 µg/mL (≈ 15.2 µM).

As for `C=C1C(=O)O[C@H]2C[C@H](C)C3=C(C[C@H]12)[C@]1(C)C[C@H]3C[C@@]12C(=O)O[C@@H]1C[C@H](C)C(CCC(C)=O)=CC[C@@H]12`, the pIC50 in [15] is 5.12.

Regarding `C=C1CC[C@H]2C(=C)CC[C@@H]3[C@H](OC(=O)[C@H]3C[C@@]3(CC(C)=O)C(=O)O[C@@H]4C/C(C)=C\CC/C=C(/C)C[C@H]43)[C@@H]12`, the negative logarithm of the IC50 (pIC50) in experiment [5] is 5.31.

The compound `C=C1C(=O)O[C@H]2C[C@H](C)[C@@]34C[C@@H](C[C@@]35C(=O)O[C@@H]3C[C@@]6(C)[C@@H](O)C[C@@H](O)C(=C)[C@@H]6C[C@@H]35)C(C)=C4C[C@H]12` showed a pIC50 in [4] of 6.85.

In turn, `C=C1C(=O)O[C@H]2C[C@H](C)C3=C(C[C@H]12)[C@@]1(C)C[C@@H]3C[C@@]12C(=O)O[C@@H]1C[C@@]3(C)[C@@H](O)C[C@@H](O)C(=C)[C@@H]3C[C@@H]12` gave a pIC50 in experiment [4] of 6.85.

`C=C1C(=O)O[C@H]2C[C@H](C)[C@@]34C[C@@H](C[C@@]35C(=O)O[C@H]3C=C(C)[C@H]6CC[C@@](C)(O)[C@@H]6C[C@@H]35)C(C)=C4C[C@H]12`: in experiment [4], the pIC50 is 5.69.

For the compound `C=C1C(=O)O[C@H]2C[C@@H](C)C3=C(C[C@H]12)[C@@]1(C)C[C@@H]3C[C@@]12C(=O)O[C@@H]1C[C@@]3(C)[C@@H](O)C[C@@H](O)C(=C)[C@@H]3C[C@@H]12`, the pIC50 in experiment [4] is 6.85.
